The values below come from ChEMBL document CHEMBL1125973, “Tricyclic quinoxalines as ligands for the strychnine-insensitive glycine site” (Bioorg Med Chem Lett, 1991).

The target in experiment [1] is Glutamate receptor ionotropic AMPA (Homo sapiens, UniProt P42261+P42262+P42263+P48058). In words: Compound was evaluated for its binding affinity towards Ionotropic glutamate receptor AMPA in presence of [3H]- AMPA. The class given is protein-complex assay.
Experiment [2] has as its target Glutamate receptor ionotropic, NMDA 1 (Rattus norvegicus, UniProt P35439). In words: Compound was evaluated for its binding affinity towards strychnine - insensitive glycine site of NMDA receptor in presence of [3H]- Gly.

Take `Oc1nc2cc(Cl)c(Cl)cc2nc1O` [2,3-DIHYDROXY-6,7-DICHLOROQUINOXALINE]: the IC50 in experiment [1] was determined as 27 µM; in experiment [2] it was 4 µM. The matching figures for `Oc1nc2cc(Cl)c(Cl)cc2n2cnnc12`: 8 µM and 7 µM. Regarding `Cn1c(=O)c(=O)[nH]c2cc(Cl)c(Cl)cc21`, the IC50 worked out at 36 µM in experiment [1] and 17 µM in experiment [2].

With `Oc1nc2cc(Cl)c(Cl)cc2n2ccnc12`, the values for the IC50 in experiment [1] and in experiment [2] were 7 µM and 6 µM, respectively. The matching figures for `CCn1c(=O)c(=O)[nH]c2cc(Cl)c(Cl)cc21`: 21 µM and 96 µM. For `O=c1[nH]c2ccccc2n2ccnc12`, the IC50 in experiment [2] was more than 100 µM. Same read-out and setting: the result for `CCCCn1c(=O)c(=O)[nH]c2cc(Cl)c(Cl)cc21` reads more than 100 µM; that for `O=c1[nH]c2ccccc2n2nnnc12`, more than 100 µM. In the case of `Oc1nc2cc(Cl)c(Cl)cc2n2nnnc12`, the IC50 in experiment [1] was more than 100 µM; in experiment [2] it was 77 µM.
